“Also recorded” adds a separate entry of the source. Counter-ions that a name gives are not always drawn. Like-named read-outs stand apart in the source and are kept apart here.
Key:
[1] = molecular target: T1, α1A-adrenergic receptor subtype (α1A-AR) (Homo sapiens, UniProt P35348); settings: Kenny et al., cited from earlier work; for pKi for α1A-AR: cloned human receptor, Br J Pharmacol. 1996; for α1-adrenoceptor subtype preference (in words): as previously reported
T1 sequence (P35348 1-466): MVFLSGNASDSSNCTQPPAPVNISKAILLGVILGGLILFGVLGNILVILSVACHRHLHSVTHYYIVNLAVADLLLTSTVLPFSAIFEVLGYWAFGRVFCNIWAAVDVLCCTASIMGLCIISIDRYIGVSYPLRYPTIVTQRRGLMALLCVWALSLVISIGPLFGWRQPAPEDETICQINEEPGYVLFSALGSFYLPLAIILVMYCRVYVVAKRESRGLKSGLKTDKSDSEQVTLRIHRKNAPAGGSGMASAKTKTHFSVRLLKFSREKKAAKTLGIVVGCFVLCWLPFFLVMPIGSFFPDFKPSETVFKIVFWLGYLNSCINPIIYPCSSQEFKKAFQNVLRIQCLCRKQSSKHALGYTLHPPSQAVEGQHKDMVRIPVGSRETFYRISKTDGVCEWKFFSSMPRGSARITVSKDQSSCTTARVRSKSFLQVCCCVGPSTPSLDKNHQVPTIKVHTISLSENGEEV

[2] = molecular target: T2, α1D-adrenergic receptor subtype (α1D-AR) (Homo sapiens, UniProt P25100); settings: cited from earlier work
T2 sequence (P25100 1-572): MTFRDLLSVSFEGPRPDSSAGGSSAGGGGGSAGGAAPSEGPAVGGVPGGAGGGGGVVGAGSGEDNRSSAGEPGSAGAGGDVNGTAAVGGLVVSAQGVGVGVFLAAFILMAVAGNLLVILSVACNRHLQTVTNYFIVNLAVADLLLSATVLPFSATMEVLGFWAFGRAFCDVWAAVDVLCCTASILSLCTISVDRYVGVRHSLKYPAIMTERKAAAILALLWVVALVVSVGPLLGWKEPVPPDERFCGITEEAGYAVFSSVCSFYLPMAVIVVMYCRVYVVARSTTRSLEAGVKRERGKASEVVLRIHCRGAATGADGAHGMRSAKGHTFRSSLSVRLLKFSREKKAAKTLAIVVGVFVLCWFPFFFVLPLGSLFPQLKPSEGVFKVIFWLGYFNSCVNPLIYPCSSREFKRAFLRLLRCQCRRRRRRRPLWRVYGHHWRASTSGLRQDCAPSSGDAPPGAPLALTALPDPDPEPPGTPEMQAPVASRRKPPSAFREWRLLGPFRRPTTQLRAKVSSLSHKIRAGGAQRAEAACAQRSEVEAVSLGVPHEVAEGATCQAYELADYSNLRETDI

[3] = test system: rhesus monkeys performing a spatial working memory task; experiment: spatial working memory task (oculomotor delayed response, ODR) in monkeys exposed to stress; type: in vivo, Rhesus monkeys (Macaca mulatta); settings: for performance (percent correct) in spatial working memory task under stress / performance in spatial working memory task under stress: versus VEH+STRESS; for effect on stress-induced prefrontal deficits: rhesus monkeys, dose not stated; for performance in spatial working memory task under stress: FIGS. 3 and 4, 0.1 mg/kg pretreatment before the stressor
Experimental: Rhesus monkeys (Macaca mulatta) exposed to stress or vehicle and administered with RS17053 (“RS17”) or vehicle (“VEH”) (FIG. 1) or administered with silodosin (“SIL”) or vehicle (“VEH”) were subjected to the oculomotor delayed response (ODR) tasks similar to those as described previously (Datta et al., J Neurosci. 2019 Apr. 3;39(14):2722-2734, the entirety of the journal article is hereby incorporated herein by reference). Specifically, the experiments were performed as the follows:
The monkeys were seated in primate chairs with their heads fixed and faced a 27-inch computer monitor 30 inches in front of them. The monkeys' eye positions were monitored with the ISCAN Eye Movement Monitoring System. The monkeys were pretrained on the visuospatial ODRtask, which required the subject to make a memory-guided saccade to a remembered visuospatial target. The ODR task was generated by the PICTO system (custom-designed, Windows-based data acquisition software). A central small white circle was illuminated on the computer monitor, which served as the fixation target. To initiate a trial, the animal fixated this central target and maintained fixation for 0.5 s (fixation period), whereupon a cue (the same sized white circle) was illuminated for a period of 0.5 s (cue period) at 1 of 8 peripheral targets located at an eccentricity of 13° with respect to the fixation spot. After the cue was extinguished, a 2.5 s delay period followed. The subject was required to maintain central fixation throughout both the cue presentation and the delay period. At the end of the delay, the fixation spot was extinguished, which instructed the monkey to make a memory-guided saccade to the location where the cue had been shown before the delay period. A trial was considered successful if the subject's response was completed within 0.5 s of the offset of the fixation spot and was within 2° around the correct cue location. The subject was rewarded with fruit juice immediately after every successful response. The position of the stimulus was randomized over trials such that it had to be remembered on a triα1-by-trial basis. The intertrial intervals (ITIs) were at least 3 s. The subject performed 1000-1500 trials per session.

[4] = molecular target: T3, α1B-adrenergic receptor subtype (α1B-AR) (Homo sapiens, UniProt P35368); settings: cited from earlier work
T3 sequence (P35368 1-520): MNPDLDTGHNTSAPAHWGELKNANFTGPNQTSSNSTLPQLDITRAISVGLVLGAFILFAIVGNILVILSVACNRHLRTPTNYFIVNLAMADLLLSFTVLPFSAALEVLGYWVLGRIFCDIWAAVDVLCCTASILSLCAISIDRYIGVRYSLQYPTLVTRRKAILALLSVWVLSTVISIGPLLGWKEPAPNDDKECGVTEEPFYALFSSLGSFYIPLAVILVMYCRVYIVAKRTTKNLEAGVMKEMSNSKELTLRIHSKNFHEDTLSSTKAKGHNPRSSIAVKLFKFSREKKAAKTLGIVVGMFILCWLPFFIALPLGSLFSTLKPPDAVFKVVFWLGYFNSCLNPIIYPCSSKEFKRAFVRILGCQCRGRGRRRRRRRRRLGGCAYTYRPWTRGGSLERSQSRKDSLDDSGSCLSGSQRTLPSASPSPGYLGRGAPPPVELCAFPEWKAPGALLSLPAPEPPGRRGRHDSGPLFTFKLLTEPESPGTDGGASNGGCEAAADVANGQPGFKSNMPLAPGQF

[5] = molecular target: T1, α1A-adrenergic receptor subtype (α1A-AR); settings: concluded from the Kenny et al. pKi values
[6] = cloned human receptor, Kenny et al., Br J Pharmacol. 1996
[7] = Williams et al. Br J Pharmacol. 1999
[8] = CHMP assessment report for Silodyx

Molecule	pKi for α1A-AR [1]	pKi for α1D-AR [2, 6]	α1-adrenoceptor subtype preference (in words) [1]	effect on stress-induced prefrontal deficits [3]	pKi for α1B-AR [4, 6]	performance in spatial working memory task under stress [3]	other results
1-(4-amino-6,7-dimethoxy-2-quinazolinyl)-4-[[2-methoxy-6-(1-methylethyl)phenoxy]acetyl]piperazine [Rec 15/2739]	9.0±0.07	8.6±0.07	–	–	–	–	–
CC(C)(Cc1c[nH]c2ccc(Cl)cc12)NCCOc1ccccc1OCC1CC1 [RS17053, N-[2-(2-cyclopropylmethoxyphenoxy)ethyl]-5-chloro-α,α-dimethyl-1H-indole-3-ethanamine]	8.6±0.09	7.1±0.09	strong preference for α1A-AR	completely blocked the stress-induced prefrontal deficits	7.3±0.09	–	performance (percent correct) in spatial working memory task under stress ([3]; FIG. 1, pretreatment 0.1 mg/kg-1 mg/kg before the stressor): protected from stress exposure; performance (percent correct) in spatial working memory task under stress ([3]; FIG. 2, low dose 0.01 mg/kg pretreatment before the stressor): blocked the stress-induced prefrontal deficits; also recorded: protected from stress exposure; effect on spatial working memory performance without stress ([3]; monkeys not subjected to stress, VEH+VEH vs. RS17+VEH): no significant effect
Cc1c[nH]c(=O)n(CCCN2CCN(c3ccccc3OCC(F)(F)F)CC2)c1=O [RS 100329 hydrochloride, 5-Methyl-3-[3-[3-[4-[2-(2,2,2,-trifluroethoxy)phenyl]-1-piperazinyl]propyl]-2,4-(1H,3H)-pyrimidinedione hydrochloride]	–	–	–	–	–	–	selectivity for α1A-AR over α1D-AR [2, 7]: 50 fold; selectivity for α1A-AR over α1B-AR [4, 7]: 126 fold
COc1cc2nc(N3CCN(C(=O)C4COc5ccccc5O4)CC3)nc(N)c2cc1OC (centres unmarked) [doxazosin]	–	–	–	–	–	–	α1-adrenoceptor subtype preference (in words) [5]: has a preference for the α1B subtype, rather than the α1A subtype
C[C@H](Cc1cc2c(c(C(N)=O)c1)N(CCCO)CC2)NCCOc1ccccc1OCC(F)(F)F [silodosin]	–	–	–	completely blocked the stress-induced prefrontal deficits	–	protected from stress exposure	pKi for α1D-AR [2, 8]: 8.66; pKi for α1B-AR [4, 8]: 8.19
CCOc1ccccc1OCCNC(C)Cc1ccc(OC)c(S(N)(=O)=O)c1 (centres unmarked) [tamsulosin, 5-(2-{[2-(2-Ethoxyphenoxy)ethyl]amino}propyl)-2-methoxybenzene-1-sulfonamide]	–	8.1±0.04	preference for α1A-AR and α1D-AR over α1B-AR	effective for treating disorders consequent of stress	7.0±0.08	protected from stress exposure	effect on stress-induced prefrontal deficits ([3]; listed as tamulosin): completely blocked the stress-induced prefrontal deficits

From US20250064781A1, “METHODS OF TREATING, AMELIORATING, AND/OR PREVENTING STRESS-RELATED DISORDER” (Yale University, priority 2021, published 2025)
